One may read the TGI as the concentration at which net growth stops. Low values mean more potent growth arrest, high ones less potent growth arrest. By GI50 is commonly meant the concentration at which growth is held to half of that of the control.

What all share (experiment): DTP human tumour cell line panel, 48 h
The subject of assay [1] is COLO 205 colon.
In assay [2] the test system is KM12 colon.
Assay [3] relates to T-47D breast.
For assay [4], the system named is HCT-15 colon.
Assay [5] concerns A549 NSCLC.
Assay [6] concerns MALME-3M melanoma.
The test system of assay [7] is SF-539 CNS.
The test system of assay [8] is SK-OV-3 ovarian.
Assay [9] concerns HOP-62 NSCLC.
The test system of assay [10] is SK-MEL-28 melanoma.
Assay [11] has as its system UACC-257 melanoma.
Assay [12] relates to SR leukemia.

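A five-concentration, 48-hour dose response in 96-well plates underlies each endpoint, interpolated linearly between surrounding concentrations. Abbreviation: GI50, concentration required for 50% inhibition of growth. At the TGI there is no net growth.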 A value given as a limit tells only on which side of the number the result lay.

Consider `CC(NC(=O)NC(C)(C)C)NC(=O)C(N)CC(=O)O` (centres undefined), for which the total growth inhibition concentration (TGI) in [1], in assay [2], in assay [3], in assay [4], in assay [5] and in assay [6] was greater than 100 µM throughout. Besides, the TGI in assay [7], in [8], in assay [9], in [10] and in assay [11] was greater than 100 µM each time.

With `CS(=O)(=O)c1nc(-c2cc3c(c(S(C)(=O)=O)n2)CCCC3)cc2c1CCCCC2`, the TGI in [1], in assay [2], in assay [4], in [5], in assay [8] and in assay [9] was greater than 100 µM each time. Moreover, the total growth inhibition concentration (TGI) in assay [10] and in assay [11] was greater than 100 µM each time.

`CN1C/C(=C\c2cccs2)C(O)/C(=C/c2cccs2)C1` (centres undefined): the TGI is greater than 100 µM in assay [1]; greater than 100 µM in [2]; 74.2 µM in assay [3]; greater than 100 µM in [4]; greater than 100 µM in [5]; greater than 100 µM in assay [6]. The concentration for total growth inhibition (TGI) in assay [8], in [9], in assay [10] and in assay [11] was greater than 100 µM throughout.

On to `CCC1(N=[N+]=[N-])C(=O)c2ccccc2N(C)C1=O` (centres undefined), for which the TGI in assay [1], in assay [2], in assay [4], in assay [5], in [6] and in assay [7] was greater than 100 µM throughout. Besides, the TGI in assay [8], in [12], in assay [9], in [10] and in [11] was greater than 100 µM throughout.

For the molecule `COC(CN(C(C)=O)C1CCC2(SCCS2)c2[nH]c3ccccc3c21)OC` (centres undefined), the concentration for total growth inhibition (TGI) in [1], in assay [2], in assay [4], in assay [5], in assay [6] and in assay [7] was greater than 100 µM each time. Besides, the TGI in assay [12] is greater than 100 µM; in [9], greater than 100 µM; in assay [10], greater than 100 µM; in assay [11] it was 3.36 µM.

In the case of `O=S(=O)(O)c1cc(N=Nc2c(O)ccc3ccccc23)ccc1/C=C/c1ccc(N=Nc2c(O)ccc3ccccc23)cc1S(=O)(=O)O`, the TGI in [1], in assay [2], in assay [3], in assay [4], in [5] and in [6] was greater than 100 µM throughout. Further, the TGI in assay [8], in [9], in assay [10] and in assay [11] was greater than 100 µM in each case.

As to `C=C1C(=O)O[C@H]2C[C@@]3(COC(C)=O)C=COC=C(COC(=O)C(C)C)C3CC12` (some centres undefined), the TGI in assay [1], in assay [2], in [4], in assay [5], in assay [6] and in assay [7] was greater than 100 µM in each case. In addition, the TGI is 91.8 µM in assay [12], greater than 100 µM in [9], greater than 100 µM in assay [10] and greater than 100 µM in assay [11].

As to `CC1=NC2=Nc3nc(C)cc[n+]3CN2C=C1`, the concentration for total growth inhibition (TGI) in assay [1], in assay [3], in assay [4], in [5], in [6] and in assay [7] was greater than 100 µM throughout. The total growth inhibition concentration (TGI) in [8], in assay [9], in [10] and in assay [11] was greater than 100 µM in each case.

Regarding `Cc1cc2/c(=C\c3ccc(N(C)C)cc3)c3ccccc3n2[n+]1C`, the total growth inhibition concentration (TGI) in assay [1] is 0.354 µM; in assay [2], 5.54 µM; in assay [3] it was 3.76 µM; in assay [4] it was 34.7 µM; in [6], 2.98 µM; in assay [7], 5.61 µM. The TGI in assay [8] is 14.3 µM; in [9], 8.45 µM; in [10], 3.19 µM; in assay [11] it was 1.07 µM.

`O=C1CC2CC3OC3[C@H]3c4cc5c(cc4C(=O)N1C23)OCO5` (some centres undefined): the TGI in assay [1], in [2], in assay [4], in assay [5], in assay [6] and in [7] was greater than 100 µM throughout. Besides, the total growth inhibition concentration (TGI) in assay [8], in assay [12], in [9] and in assay [10] was greater than 100 µM in each case.

On to `COc1c(/C=C/C(C)(C)O)cc(C2CC(=O)c3c(O)cc(O)cc3O2)cc1CC=C(C)C` (centres undefined), for which the TGI in assay [1] was found to be 17.7 µM; in assay [2], 20.7 µM; in assay [3], 33.2 µM; in [4] it was 17.5 µM; in assay [5], 19.8 µM; in assay [6] it was 18 µM. Moreover, the TGI stood at 17.4 µM in assay [7], 17.6 µM in assay [8], 42.5 µM in assay [10] and 15.9 µM in [11].

On to `O=C(N/N=C/c1cc(Cl)cc(Cl)c1[O-])c1ccccc1O.O=C(N/N=C/c1cc(Cl)cc(Cl)c1[O-])c1ccccc1O.[Co+2]`, for which the GI50 in [1] was 3.8 µM; in assay [2], 0.963 µM; in assay [5] it was 0.532 µM; in [6] it was 2.19 µM; in assay [7] it was 0.486 µM. Moreover, the concentration for total growth inhibition (TGI) was determined as 18.3 µM in assay [1]; 19.1 µM in [2]; 13.8 µM in assay [4]; 13.2 µM in [5]; 16 µM in assay [6]; 5.68 µM in assay [7]. In addition, the TGI in assay [8] amounted to 6.45 µM; in assay [12], 0.532 µM; in assay [9] it was 5.07 µM; in assay [10], 12.1 µM; in assay [11], 14.6 µM.

In the case of `O=C(NCCN1CCOCC1)c1cn2c(ccc3sc4ccccc4c(=O)c32)n1`, the TGI in [1], in [2], in assay [4], in assay [5], in assay [6] and in assay [7] was greater than 100 µM in each case. The TGI in assay [12], in assay [9], in assay [10] and in [11] was greater than 100 µM in each case.

For the molecule `COc1cc(C(C)O)c(S(=O)(=O)CC(C)O)nn1` (centres undefined), the TGI in assay [1], in [2], in assay [4], in [5], in assay [6] and in assay [7] was greater than 100 µM throughout. The TGI in assay [8], in assay [12], in assay [10] and in assay [11] was greater than 100 µM throughout.

In the case of `CCOC(=O)c1[nH]c(-c2[nH]c(-c3[nH]c(-c4[nH]c(C(=O)OCC)c(C)c4C(=O)OCC)c(C(=O)OCC)c3C)c(C)c2C(=O)OCC)c(C(=O)OCC)c1C`, the total growth inhibition concentration (TGI) in assay [1], in assay [2], in assay [3], in [4], in [5] and in [6] was greater than 100 µM throughout. Further, the concentration for total growth inhibition (TGI) in assay [7], in assay [8], in [9], in [10] and in [11] was greater than 100 µM throughout.

With `O=c1cc(CO)oc2c3c(cc(O)c12)OCC(COC1OC(CO)C(O)C(O)C1O)=CC3` (centres undefined), the concentration for total growth inhibition (TGI) in assay [1], in assay [2], in assay [4], in assay [5], in [7] and in assay [8] was greater than 100 µM in each case. The concentration for total growth inhibition (TGI) in assay [12], in assay [9], in assay [10] and in assay [11] was greater than 100 µM each time.

`Clc1ccc(C2=NN=C3C(c4ccccc4)=Nc4ccccc4N3C2)cc1`: the total growth inhibition concentration (TGI) was greater than 100 µM in assay [1]; greater than 100 µM in assay [2]; greater than 100 µM in [4]; greater than 100 µM in assay [5]; greater than 82 µM in assay [6]; greater than 100 µM in assay [7]. For the same molecule, the TGI in assay [8] was greater than 100 µM; in assay [12], greater than 21.9 µM; in assay [9] it was greater than 100 µM; in assay [10], greater than 100 µM; in assay [11], greater than 100 µM.

Take `CC(=O)OCC1OC(n2cc(F)c(=O)[nH]c2=O)C(NC(=O)OCc2ccccc2)C(OC(C)=O)C1OC(C)=O` (centres undefined): the concentration for total growth inhibition (TGI) in [2], in assay [4], in assay [5], in [6], in [7] and in assay [8] was greater than 100 µM in each case. Moreover, the TGI in assay [9], in [10] and in [11] was greater than 100 µM in each case.

In the case of `O=C(/C=C/c1ccccc1)CSc1ncn[nH]1`, the TGI in assay [1], in assay [2], in assay [4], in assay [5], in assay [6] and in assay [7] was greater than 100 µM each time. For the same molecule, the TGI in assay [8], in [12], in [9], in assay [10] and in assay [11] was greater than 100 µM in each case.

As to `O=C(/C=C/c1ccc(-c2ccccc2)cc1)NCc1ccc(C(=O)NCc2ccccc2)cc1`, the total growth inhibition concentration (TGI) in assay [1], in [2], in assay [3], in assay [4], in assay [5] and in assay [6] was greater than 100 µM each time. The total growth inhibition concentration (TGI) in assay [7], in [8], in assay [9], in [10] and in assay [11] was greater than 100 µM in each case.

Regarding `CCOc1ccc2[nH]c3c(C)c4ccncc4c(C)c3c2c1`, the TGI in assay [1] came to 3.04 µM; in [2] it was 2.22 µM; in assay [4] it was 1.61 µM; in [5], 2.88 µM; in assay [6], 2.83 µM; in [7], 2.94 µM. Moreover, the TGI worked out at 16.4 µM in [8], 2.3 µM in [9], 3.61 µM in [10] and 3.24 µM in assay [11].

As for `CCOC(=O)c1nnsc1N/N=C\c1ccc([N+](=O)[O-])cc1`, the TGI in assay [1], in assay [2], in [3], in assay [4], in assay [5] and in [6] was greater than 100 µM in each case. Moreover, the TGI in assay [8], in assay [9], in assay [10] and in assay [11] was greater than 100 µM in each case.

Turning to `c1ccc(C(NCC2CCO2)(c2ccccc2)c2ccccc2)cc1` (centres undefined), the TGI in [1] is greater than 100 µM; in assay [2] it was 28.8 µM; in [4] it was 33.7 µM; in assay [5], 30.6 µM; in [6], 35.1 µM; in [7] it was 33.6 µM. The TGI in assay [8] is 34.2 µM; in [12] it was greater than 100 µM; in assay [10], greater than 100 µM; in [11], 39.5 µM.

Regarding `Brc1ccc(C[P+]2(c3ccccc3)CCCCC2)cc1`, the TGI in assay [1], in assay [2], in assay [4], in assay [5], in assay [6] and in [7] was greater than 100 µM throughout. The TGI in assay [8] was greater than 100 µM; in assay [12], greater than 100 µM; in [9] it was greater than 100 µM; in assay [10] it was greater than 100 µM; in assay [11], 73.8 µM.

In the case of `Cc1nc(CC#N)n[nH]1`, the total growth inhibition concentration (TGI) in assay [1], in assay [2], in assay [4], in assay [5], in assay [7] and in [8] was greater than 100 µM in each case. Moreover, the TGI in assay [12], in assay [9] and in [11] was greater than 100 µM each time.
